Results on 89 compounds are retold here after a melting point compilation (Tetko et al.; mined from patent text by program, amines drawn as free bases though some values may be those of a salt).

The term melting point denotes the temperature of the solid-liquid transition. Regarding `CNC(=O)Oc1ccc(NS(=O)(=O)c2ccc(C)cc2)c(C)c1`, the melting point lay within 181 to 184 °C.

Compound `CNS(=O)(=O)Oc1ccc2c(c1)C(C)(C)C(O)O2` (centres undefined) came in with a melting point of 111 to 112 °C.

Turning to `O=C(O)Cc1ccc(OCCNC(=O)C2Cc3ccccc3N2S(=O)(=O)c2ccc(-c3cccc(C(F)(F)F)c3)cc2)cc1` (centres undefined), the melting point stood at 92 °C.

Take `S=c1ncc2ccccc2[nH]1`: the melting point fell in the range of 234 to 235 °C.

In turn, `CN(C)C(=O)c1cn(-c2cc3c(=O)n(NS(C)(=O)=O)c(=O)[nH]c3cc2C(F)(F)F)cn1` showed a melting point of 284 to 286 °C.

On to `COC(=O)c1ccc(/C=C(\C)c2ccc3c(c2)SCCCN3C)cc1`, for which the melting point was 97 to 98 °C.

Compound `CC(C)c1cccc(S(=O)(=O)n2c(CCCC(=O)O)cc3cc(Cl)ccc32)c1` returned a melting point of 128 °C.

In turn, `O=C(O)Cc1ccc(CNC(=O)C2Cc3ccccc3N2S(=O)(=O)c2ccc(-c3cccc(C(F)(F)F)c3)cc2)c(Cl)c1` (centres undefined) showed a melting point of 95 to 106 °C.

The compound `COc1ccc(C(=O)Nc2ccc(C(C)(C)C#N)c(-c3cncnc3)c2)cc1OC` gave a melting point of 198 to 200 °C.

`CC1(C)CCc2cc(O)c(C=O)cc21` had a melting point of 40 to 40.5 °C.

The compound `CCOCCNc1nc(Cl)nc(N[C@@H](C)c2ccccc2)n1` registered a melting point of 103 °C.

For `Cc1cc(OCc2ccc(-c3ccc(OC(F)(F)F)cc3)nc2C2CC2)ccc1OC(C)(C)C(=O)O`, the melting point lay in the range of 131 to 133 °C.

Compound `CCOC(=O)Cn1c(=O)[nH]c(=O)c2cc(Cl)c(Cl)cc21` yielded a melting point of more than 280 °C.

As to `CCN1C(=O)C(C(=O)Nc2cccc(C(=O)Nc3ccc(Cl)cc3)c2)c2cc(C(C)=O)ccc21` (centres undefined), the melting point lay in the range of 119 to 121 °C.

In the case of `NC(=O)CNC(=O)c1cccc(-c2ccc(F)c3cc(Cc4ccc(F)c(F)c4)sc23)c1`, the melting point was 161 to 162 °C.

`Cc1nc(-c2ccc(C(F)(F)F)cc2)sc1CCOc1ccc(CC(=O)O)cc1`: the melting point fell in the range of 128 to 130 °C.

For `Nc1ccccc1C(=O)NC1CCN(CCCOc2ccc3c4c(c(=O)oc3c2)CCC4)CC1`, the melting point was in the range of 269 to 270 °C.

As for `C=CCc1cc(C=O)ccc1O`, the melting point was determined as 66 °C.

Compound `CC(C)C1C(CO)=C(c2ccc(F)cc2)C=CN1C12CC3CC(CC(C3)C1)C2` (centres undefined) came in with a melting point of 143 to 145 °C.

Regarding `COC(=O)c1ccsc1N=C=S`, the melting point was 63 to 65 °C.

The compound `Cc1c(C)c2c(c(C)c1OCc1ccccc1)C(CN1CCCC1CO)C(C)(C)O2` (mixture of isomers) displayed a melting point of 99 to 101 °C.

`O=C(Nc1cccnc1)c1ccc(OC(F)F)c2oc3ccc(C(F)(F)F)cc3c12` came in with a melting point of 235 to 236 °C.

In the case of `Oc1ccc(-c2nc(-c3ccc(F)cc3)c(-c3ccncc3)[nH]2)cc1`, the melting point was in the range of 214 to 215 °C.

For `O=C(Cc1cc(F)cc(F)c1)Nc1ccc(NCc2ccc(F)cc2)nc1N1CCOCC1`, the melting point lay in the range of 196 to 198 °C.

In turn, `CS(=O)c1ccc(C2=CC(=O)C(C)(C)O2)cc1` (centres undefined) had a melting point of 108 to 109 °C.

In turn, `CC1CC(=O)NN=C1c1ccc(OCCCN)cc1` (centres undefined) gave a melting point of 136 to 138 °C.

Regarding `O=c1c2c([nH]c3cn[nH]c13)CCCC2`, the melting point was more than 325 °C.

Compound `N#Cc1cnn2c(-c3ccc(Cl)cc3)ccnc12` had a melting point of 244 to 245 °C.

`C=CCOc1cc(-n2c(=O)cc(C(F)(F)F)n(C)c2=O)c(F)cc1Br` came in with a melting point of 120 °C.

Compound `NS(=O)(=O)c1ccc(-c2cc(-c3nc(-c4ccc(Cl)c(Cl)c4)cc(C(F)(F)F)n3)ccn2)s1` showed a melting point of 266 °C.

Compound `CCOC(=O)Nc1cc(C(=O)NC(C)C)c(Cl)cc1F` yielded a melting point of 127 to 130 °C.

`Cc1ccc(C)c(OCc2ccccc2/C(=N\O)C(N)=O)c1` gave a melting point of 166 to 168 °C.

`CN1CCC(c2c[nH]c3ccc(C(=O)c4ccccc4)cc23)CC1` gave a melting point of 101 °C.

With `CNC(=O)COc1cc(OC)ccc1O`, the melting point fell in the range of 136 to 138 °C.

On to `CC(C)(O)c1nnc(-c2ccc3ncn(-c4ccc(OC(F)(F)F)cc4)c3c2)o1`, for which the melting point lay in the range of 159 to 160 °C.

In turn, `CCCCCCCCCCCCCC=CCC(O)C(=O)O` (centres undefined) showed a melting point of 78 to 79.5 °C.

In turn, `OC1CCN(c2cc(-c3ccccc3)nc(-c3ccccc3)n2)CC1` showed a melting point of 158 to 160 °C.

Compound `COc1ccc2c(c1)CNc1cc(Cl)ccc1O2` gave a melting point of 111 to 113 °C.

Compound `Cc1ccc([C@@H](O)C(F)(F)F)cc1` gave a melting point of 44.2 °C.

`Cc1nc(NC(=O)c2cccnc2)sc1C(=O)NCc1ccccc1` had a melting point of 224 to 226 °C.

`CC(O)C1(C)COC(c2ccc(F)cc2)OC1` (centres undefined) came in with a melting point of 78 °C.

For the compound `N[C@@H](Cc1cccc(OC(F)(F)C(F)F)c1)[C@H](O)c1ccc(Oc2ccccc2)cc1` (racemic), the melting point was in the range of 85 to 86 °C.

Compound `CCCCc1ccc(OC)c(-c2csc(NC(=O)c3ccc(C(=O)N4CCC(N5CCC(OC(C)=O)C5)CC4)cc3)n2)c1` (centres undefined) returned a melting point of 99 °C.

As to `COc1ccc(Cn2c3ncnc4c(ncn4Cc4ccc(OC)cc4)c-3nc2=O)cc1`, the melting point lay within 175 to 177 °C.

In turn, `COC(C)CCC1(O)C2=NCCCN2c2cc(Cl)ccc21` (centres undefined) displayed a melting point of 146 to 148 °C.

Consider `COC(=O)c1c(-c2cccc([N+](=O)[O-])c2)cc(-c2ccccc2)nc1C`, for which the melting point lay within 127 to 129 °C.

Turning to `O=S(=O)(Nc1ccc2c(OCc3ccc(-c4ccc(Cl)c(Cl)c4)cc3F)cccc2c1)C(F)(F)F`, the melting point is 172 to 174 °C.

In turn, `CCCCNC(=O)c1ccc(Cl)c(-n2nc(CCCC)n(Cc3ccc(Br)cc3F)c2=O)c1` registered a melting point of 114 to 116 °C.

`Cc1nc(NC(=O)C2c3ccccc3Oc3ccccc32)no1`: the melting point worked out at 186 °C.

With `NCCn1c(=O)nc(-c2ccc3c(c2)OCO3)c2cc3c(cc21)OCO3`, the melting point lay in the range of 115 to 120 °C.

Compound `CC(C)(C)NS(=O)(=O)c1ccc(N)cc1` gave a melting point of 127 °C.

For `Cn1c(=O)[nH]c2nc3ccc(OCCCC(=O)O)cc3cc21`, the melting point is 286 to 288 °C.

`C=CCN1CCCNC1=C[N+](=O)[O-]` came in with a melting point of 125 to 126 °C.

In the case of `CS(=O)(=O)NCCCc1c[nH]c(-c2ccc(F)cc2)c1-c1ccncc1`, the melting point is 210 to 214 °C.

Compound `Cc1cccc(CC(Nc2ccccc2)C(=O)NC(C#N)COCc2ccc(F)c(C(=O)O)c2)c1` (centres undefined) came in with a melting point of 107 to 108 °C.

On to `C=Cc1cc(OCOCCOC)c(OCOCCOC)c(Cl)c1Cl`, for which the melting point amounted to 60 °C.

In the case of `CC(=O)Nc1ccc(-c2ccc(C(O)CCC(=O)O)cc2)cc1Br` (centres undefined), the melting point fell in the range of 125 to 126 °C.

`O=S(=O)(Nc1ccc(Cl)cc1-c1cc(-c2ccc(F)cc2F)on1)C(F)(F)F` yielded a melting point of 117 to 119 °C.

Consider `C[Si](C)(c1ccccc1)c1ccccc1CO`, for which the melting point was 53 to 54 °C.

With `COC(=O)CCc1ccc(CCc2csc(NC(C)=O)n2)s1`, the melting point lay within 104 to 106 °C.

`CCn1c(C)nc2cc(C(N)=O)ccc21`: the melting point came out at 251 °C.

In turn, `CCOC(=O)NN=Cc1cc(-n2c(=O)cc(C(F)(F)F)n(C)c2=O)ccc1Cl` registered a melting point of 111 to 116 °C.

In turn, `CCCN(CCC)C(=O)/C=C/CSc1nc(N)cc(Cl)n1` displayed a melting point of 139 to 142 °C.

Compound `O=C(NC(=O)N1CCC(Cc2ccccc2)CC1)c1ccc2[nH]c(=O)oc2c1` returned a melting point of 174 °C.

Compound `COC(=O)c1cc2c(cc1N)OCO2` had a melting point of 107 to 108 °C.

`CCCC(=O)Nc1cc(Sc2ccccc2)ccc1NC(=NC(=O)OC)NC(=O)OC` displayed a melting point of 180 °C.

With `O=Cc1cc(Br)c(Cl)s1`, the melting point lay in the range of 61 to 62 °C.

As to `CC(C)c1ccc2nc3ccc(C#N)cc3c(=O)n2c1`, the melting point is 207 to 211 °C.

In turn, `COc1ccc(COC(=O)NC(C(=O)O)c2cccs2)cc1` (centres undefined) had a melting point of 153 to 156 °C.

`COc1ccc(Nc2ncnc(NCCO)n2)cc1` displayed a melting point of 160 to 164 °C.

With `N#C/C=C/c1coc2ccccc2c1=O`, the melting point is 192 to 194 °C.

As to `CC(C)CN1C(=O)[C@@H](CCCl)O[C@H](c2ccccc2Cl)c2cc(Cl)ccc21` (relative stereo), the melting point lay within 138 to 140 °C.

`O=C1OC2(CCN(C(=O)Nc3cnc(-c4ccccc4)cn3)CC2)c2cc(O)ccc21`: the melting point is 206 to 208 °C.

The compound `NNc1nc2ccc(OC(F)(F)F)cc2s1` gave a melting point of 208 °C.

Compound `CCOC(=O)c1cc2c3ccccc3[nH]c(=O)n2n1` came in with a melting point of 242 to 244 °C.

For `C[C@@H](n1ncn(-c2ccc(-n3nccn3)cc2)c1=O)[C@](O)(Cn1cncn1)c1ccc(F)cc1F`, the melting point is 213 to 215 °C.

Consider `CNC(=O)/C=C/c1ccc(C(=O)NCC(=O)N(C)c2ccc(Cl)c(COc3cccc4ccc(C)nc34)c2Cl)cc1`, for which the melting point lay within 143 to 150 °C.

`CCCCCCOC(=O)C1=C(C)NN=C(c2ccccc2)C1c1cccc(Cl)c1` (centres undefined) came in with a melting point of 103 °C.

Turning to `Cc1cc(Cl)ccc1N=CN(C)SN(C)c1ccccc1`, the melting point is 65 to 67 °C.

As for `COC(=O)Cc1cc2c(cc1CC(=O)NCCc1cccc(OC)c1)OCO2`, the melting point lay within 81 to 83 °C.

For `Cc1ccccc1CC(=NC#N)NC(NC(=O)Cc1ccc2c(c1)OCCO2)C(C)(C)C` (centres undefined), the melting point was in the range of 180 to 181 °C.

As to `CNC(=O)C(Cc1ccc(OC)cc1)NC(=O)C(C)(CC(C)C)c1c(S)cccc1Cl` (centres undefined), the melting point lay in the range of 159 to 163 °C.

With `COc1cc2c3c(n(C)c(=O)c2cc1OC)-c1cc2c(cc1C3=CCCCBr)OCO2`, the melting point was in the range of 197 to 199 °C.

As to `C=C(Cl)CNC(=S)SCc1ccccc1`, the melting point was in the range of 46 to 48 °C.

Take `O=[N+]([O-])c1ccccc1-c1ccc(CBr)cc1`: the melting point is 109 to 110 °C.

With `Cn1cnc(S(=O)(=O)Nc2cccc(C=C3c4ccccc4CCc4ccccc43)c2)c1`, the melting point was determined as 257 °C.

The compound `COC(=O)c1cc2c(nc1Cl)CCCCC2` displayed a melting point of 148 to 149 °C.

The compound `COc1ccc(-c2ccc(-c3cc(NC(Cc4ccccc4)C(=O)O)ncn3)cc2)cc1` (centres undefined) showed a melting point of 123 to 125 °C.

Regarding `CON(C)C(=O)NC(CS)Cc1ccccc1` (single isomer, unassigned; (+)), the melting point came to 50 °C.
